Literature values as cited in patent publication US7157444B2, “Aminosalicylate derivatives for treatment of inflammatory bowel disease” (priority 2002, dated 2007).

Settings: oral, 40 mL of a suspension of 1 g of ASA in water, fasted healthy subjects

| SMILES | maximum plasma concentration [µg/mL] | time of maximum plasma concentration post-dose |
| --- | --- | --- |
| Nc1ccc(O)c(C(=O)O)c1 [ASA, 5-aminosalicylic acid] | 14.7 | Within an hour post-dose |
| CC(=O)Nc1ccc(O)c(C(=O)O)c1 [N-acetyl-ASA] | 11.4 | Within an hour post-dose |
